The record followed here is patent US10716821B2, “Use of plant extracts against herpes simplex virus” (UNIVERSITÉ DU QUÉBEC À CHICOUTIMI, priority 2013, dated 2020).

This assay concerns HSV-1. The assay is described as follows: HSV-1 plaque reduction, method D: replication period. In kind it is cell-based, herpes simplex virus type-1. Here is the method:
Plaque assays were performed with monolayer cultures of Vero cells in 24-well culture plates. For plaque reduction assay, cell monolayer was infected with virus (30 pfu/well) and incubated at 37° C. with 5% CO2 for one hour. The infected cell monolayer was then washed with PBS and overlaid with overlapping solution (maintenance medium containing 1% methylcellulose and various concentrations of indicated compounds). After 72 h of incubation at 37° C., cell monolayer was fixed with 5% paraformaldehyde and stained with 0.8% crystal violet. Plaques were counted and the percentage of inhibition was calculated as [(Pc−Pe)/Pc]100, where Pc and Pe refer to the plaque number in the absence and presence of the compound, respectively. The minimal concentration of compounds required to reduce 50% of plaque numbers (IC50) was also calculated. Cells and viruses (HSV-1) were incubated with acyclovir and various extracts at different stages during the viral infection cycle in order to determine the antiviral action mode (Koch et al., 2008). (A) For virus pretreatment assay, the virus suspension was incubated in a medium containing different concentrations of the extracts for one hour at 37° C. prior to infection of Vero cells. […] The antiviral activity of non-cytotoxic plant extracts was determined against HSV-1 in vitro. […] Then, the cells were washed and quantified using resazurin.

As to `Nc1nc2c(ncn2COCCO)c(=O)[nH]1` [Acyclovir], the inhibition at 100 µg/mL (Human alphaherpesvirus 1, 72 h, at 100 μg/ml, replication period (extracts added after infection, stay 3 days on cells), Vero cells, read-out: Inhibitory percentage of lysis plaques, D) came to 100%. Further, under “dose of 0.75 μg/ml”, the “Protection of VERO cells against infection (positive control)” value was “protects VERO cells against infection”.
